In brackets after ≈: the same amount, converted by molar mass. Bridge positions count the residues as written; N and C are the ends. Peptide text beside a SMILES is read from it.
Experiments:
Homo sapiens [1] = organism: Homo sapiens; assay: Selectivity ratio of EC50 for human CTR expressed in Baby hamster kidney cells to EC50 for human AMY3R complex of CTR/RAMP3 expressed in Baby hamster kidney cells; type: cell-based
Rattus norvegicus [2] = organism: Rattus norvegicus; assay: Selectivity ratio of EC50 for rat CTR expressed in Baby hamster kidney cells to EC50 for rat AMY3R complex of CTR/RAMP3 expressed in Baby hamster kidney cells; type: cell-based
Homo sapiens [3] = organism: Homo sapiens; assay: Selectivity ratio of IC50 for human CTR expressed in Baby hamster kidney cell membrane to IC50 for human AMY3R complex of CTR/RAMP3 expressed in Baby hamster kidney cell membrane; type: cell-based
Rattus norvegicus [4] = organism: Rattus norvegicus; assay: Selectivity ratio of IC50 for rat CTR expressed in Baby hamster kidney cell membrane to IC50 for rat AMY3R complex of CTR/RAMP3 expressed in Baby hamster kidney cell membrane; type: cell-based
[5] = target: T1, Amylin receptor AMY3; CALCR/RAMP3 (Homo sapiens, UniProt O60896+P30988); assay: Agonist activity at human AMY3R complex of CTR/RAMP3 expressed in Baby hamster kidney cells incubated for 3 hrs followed by medium replacement without compound measured after 30 mins by luciferase reporter assay; type: functional, cell-based, Baby hamster kidney cell
T1 sequence (P30988 whole entry): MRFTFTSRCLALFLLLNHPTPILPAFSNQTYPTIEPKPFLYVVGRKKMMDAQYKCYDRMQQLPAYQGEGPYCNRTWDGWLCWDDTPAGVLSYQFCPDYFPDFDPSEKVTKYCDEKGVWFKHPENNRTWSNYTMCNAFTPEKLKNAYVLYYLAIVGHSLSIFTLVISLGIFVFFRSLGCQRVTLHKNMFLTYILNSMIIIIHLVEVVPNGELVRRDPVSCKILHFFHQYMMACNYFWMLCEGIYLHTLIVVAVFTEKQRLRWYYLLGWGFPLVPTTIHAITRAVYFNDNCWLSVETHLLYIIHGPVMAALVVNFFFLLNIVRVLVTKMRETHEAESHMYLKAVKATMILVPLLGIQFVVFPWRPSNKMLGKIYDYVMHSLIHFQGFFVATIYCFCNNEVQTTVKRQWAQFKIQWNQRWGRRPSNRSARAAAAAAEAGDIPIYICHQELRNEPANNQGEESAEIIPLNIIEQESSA
T1 sequence (O60896 whole entry): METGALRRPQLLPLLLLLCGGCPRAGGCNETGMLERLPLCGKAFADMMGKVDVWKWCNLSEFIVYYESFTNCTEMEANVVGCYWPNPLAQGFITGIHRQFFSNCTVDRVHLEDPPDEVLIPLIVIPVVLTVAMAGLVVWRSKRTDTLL

Calcitonin receptor [6] = target: T2, Calcitonin receptor (Homo sapiens, UniProt P30988); assay: Agonist activity at human CTR expressed in Baby hamster kidney cells incubated for 3 hrs followed by medium replacement without compound measured after 30 mins by luciferase reporter assay; type: functional, cell-based, Baby hamster kidney cell
T2 sequence (P30988 whole entry): T1 sequence (P30988 whole entry)

[7] = target: T3, Amylin receptor AMY3; CALCR/RAMP3 (Rattus norvegicus, UniProt P32214+Q9JJ73); assay: Agonist activity at rat AMY3R complex of CTR/RAMP3 expressed in Baby hamster kidney cells incubated for 3 hrs by cAMP assay; type: functional, cell-based, Baby hamster kidney cell
T3 sequence (P32214 whole entry): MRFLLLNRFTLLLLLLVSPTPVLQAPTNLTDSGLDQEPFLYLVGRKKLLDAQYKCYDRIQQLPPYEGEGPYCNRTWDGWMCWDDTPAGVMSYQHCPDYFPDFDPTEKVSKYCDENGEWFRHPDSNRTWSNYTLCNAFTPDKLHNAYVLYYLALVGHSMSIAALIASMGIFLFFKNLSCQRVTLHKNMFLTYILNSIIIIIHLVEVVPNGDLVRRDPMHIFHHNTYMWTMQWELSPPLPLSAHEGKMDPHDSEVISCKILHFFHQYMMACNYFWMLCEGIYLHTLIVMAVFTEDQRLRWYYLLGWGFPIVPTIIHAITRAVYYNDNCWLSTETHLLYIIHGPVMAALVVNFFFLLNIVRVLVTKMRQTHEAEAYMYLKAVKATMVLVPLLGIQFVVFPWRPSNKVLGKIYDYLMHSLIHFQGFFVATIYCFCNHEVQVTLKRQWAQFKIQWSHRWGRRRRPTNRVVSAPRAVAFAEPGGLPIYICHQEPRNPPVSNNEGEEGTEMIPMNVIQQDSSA
T3 sequence (Q9JJ73 whole entry): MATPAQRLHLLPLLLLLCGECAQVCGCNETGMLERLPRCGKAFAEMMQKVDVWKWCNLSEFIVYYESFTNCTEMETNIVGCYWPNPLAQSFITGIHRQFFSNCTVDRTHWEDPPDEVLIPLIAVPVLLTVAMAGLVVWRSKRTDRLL

Calcitonin receptor [8] = target: T4, Calcitonin receptor (Rattus norvegicus, UniProt P32214); assay: Agonist activity at rat CTR expressed in Baby hamster kidney cells incubated for 3 hrs by cAMP assay; type: functional, cell-based, Baby hamster kidney cell
T4 sequence (P32214 whole entry): T3 sequence (P32214 whole entry)

[9] = Solubility of compound at pH 3 incubated overnight by UPLC analysis; type: physicochemical; conditions: buffer
[10] = Solubility of compound at pH 4 incubated overnight by UPLC analysis; type: physicochemical; conditions: buffer
[11] = Solubility of compound at pH 5 incubated overnight by UPLC analysis; type: physicochemical; conditions: buffer
[12] = Solubility of compound at pH 6 incubated overnight by UPLC analysis; type: physicochemical; conditions: buffer
[13] = Solubility of compound at pH 6.5 incubated overnight by UPLC analysis; type: physicochemical; conditions: buffer
[14] = Solubility of compound at pH 7 incubated overnight by UPLC analysis; type: physicochemical; conditions: buffer
[15] = Solubility of compound at pH 7.5 incubated overnight by UPLC analysis; type: physicochemical; conditions: buffer
[16] = Solubility of compound at pH 8 incubated overnight by UPLC analysis; type: physicochemical; conditions: buffer
[17] = Stability against amyloid fibril formation at pH 7.5 assessed as lag time at 1 uM measured after 45 hrs by ThT assay; type: physicochemical; conditions: pH 7.5, 45 h
[18] = Stability against amyloid fibril formation at pH 7.5 assessed as compound recovery at 1 uM measured after 45 hrs by ThT assay; type: physicochemical; conditions: pH 7.5, 45 h
[19] = target: T1, Amylin receptor AMY3; CALCR/RAMP3; assay: Displacement of 125I-rat amylin from human AMY3R complex of CTR/RAMP3 expressed in Baby hamster kidney cell membrane incubated for 120 mins by SPA method; type: cell membranes
Calcitonin receptor [20] = target: T2, Calcitonin receptor; assay: Displacement of 125I-Calcitonin from human CTR expressed in Baby hamster kidney cell membrane incubated for 120 mins by SPA method; type: cell membranes
[21] = target: T3, Amylin receptor AMY3; CALCR/RAMP3; assay: Displacement of 125I-rat amylin from rat AMY3R complex of CTR/RAMP3 expressed in Baby hamster kidney cell membrane incubated for 120 mins by SPA method; type: cell membranes
Calcitonin receptor [22] = target: T4, Calcitonin receptor; assay: Displacement of 125I-Calcitonin from rat CTR expressed in Baby hamster kidney cell membrane incubated for 120 mins by SPA method; type: cell membranes
Rattus norvegicus [23] = assay: Appetite suppressing activity in rat assessed as reduction in food intake at 30 nmol/kg, sc measured upto 24 hrs relative to control; type: functional; parameters: scale not given: the % may be the effect or the level left
Rattus norvegicus [24] = assay: Appetite suppressing activity in rat assessed as reduction in food intake at 30 nmol/kg, sc measured for 24 to 48 hrs relative to control; type: functional; parameters: scale not given: the % may be the effect or the level left; conditions: time 24-48 hrs

EC50 [5] [nM]	EC50 (Calcitonin receptor [6]) [nM]	EC50 [7] [nM]	EC50 (Calcitonin receptor [8]) [nM]	solubility [9] [µM]	solubility [10] [µM]	solubility [11] [µM]	solubility [12] [µM]	solubility [13] [µM]	solubility [14] [µM]	solubility [15] [µM]	solubility [16] [µM]	Time [17] [h]	Drug recovery [18] [%]	SMILES	Ratio EC50 (Homo sapiens [1])	Ratio EC50 (Rattus norvegicus [2])	other results
														CC[C@H](C)[C@H](NC(=O)[C@H](C)NC(=O)CNC(=O)[C@H](Cc1ccccc1)NC(=O)[C@H](CC(N)=O)NC(=O)[C@@H]1CCCN1C(=O)[C@H](CO)NC(=O)[C@H](CO)NC(=O)[C@H](Cc1c[nH]cn1)NC(=O)[C@H](CCCNC(=N)N)NC(=O)[C@H](CC(C)C)NC(=O)[C@H](Cc1ccccc1)NC(=O)[C@H](CC(=O)O)NC(=O)[C@H](C)NC(=O)[C@H](CC(C)C)NC(=O)[C@H](CCCNC(=N)N)NC(=O)[C@H](CCC(N)=O)NC(=O)[C@@H](NC(=O)[C@H](C)NC(=O)[C@@H]1CSSC[C@H](NC(=O)[C@@H](N)CCCCN)C(=O)N[C@@H](CC(N)=O)C(=O)N[C@@H]([C@@H](C)O)C(=O)N[C@@H](C)C(=O)N[C@@H]([C@@H](C)O)C(=O)N1)[C@@H](C)O)C(=O)N1CCC[C@H]1C(=O)N[C@@H](CO)C(=O)N[C@H](CO)C(=O)N[C@H](C(=O)N[C@@H](CC(N)=O)C(=O)N[C@H](C(=O)NCC(=O)N[C@@H](CO)C(=O)N[C@@H](CC(=O)O)C(=O)N[C@H](C(=O)N[C@@H](Cc1ccc(O)cc1)C(N)=O)[C@@H](C)O)C(C)C)[C@@H](C)O	15	1340	Ratio IC50 (Homo sapiens [3]): 55; Ratio IC50 (Rattus norvegicus [4]): 447
0.18	0.697	0.463	14.3	≥ 200	≥ 200	≥ 200	≥ 200	≥ 200	≥ 200	≥ 200	≥ 200	> 45	100	CC(C)C[C@H](NC(=O)[C@H](CCCNC(=N)N)NC(=O)[C@H](CCC(N)=O)NC(=O)[C@@H](NC(=O)[C@H](C)NC(=O)[C@@H]1CSSC[C@H](NC(=O)[C@@H](N)CCCCN)C(=O)N[C@@H](CC(N)=O)C(=O)N[C@@H]([C@@H](C)O)C(=O)N[C@@H](C)C(=O)N[C@@H]([C@@H](C)O)C(=O)N1)[C@@H](C)O)C(=O)N[C@@H](C)C(=O)N[C@@H](CC(=O)O)C(=O)N[C@@H](Cc1ccccc1)C(=O)N[C@@H](CC(C)C)C(=O)N[C@@H](CCCNC(=N)N)C(=O)N[C@@H](Cc1c[nH]cn1)C(=O)N[C@@H](CO)C(=O)N[C@@H](CO)C(=O)N[C@@H](CCC(N)=O)C(=O)N[C@@H](CC(N)=O)C(=O)N[C@@H](Cc1ccccc1)C(=O)NCC(=O)N[C@@H](C)C(=O)N1CCC[C@H]1C(=O)N[C@@H](CC(C)C)C(=O)N[C@@H](CO)C(=O)N[C@@H](CO)C(=O)N[C@H](C(=O)N1CCC[C@H]1C(=O)N[C@H](C(=O)NCC(=O)N[C@@H](CO)C(=O)N[C@@H](CC(=O)O)C(=O)N[C@H](C(=O)N[C@@H](Cc1ccc(O)cc1)C(N)=O)[C@@H](C)O)C(C)C)[C@@H](C)O (H-KCNTATCATQRLADFLRHSSQNFGAPLSSTPVGSDTY-NH2; disulfide 2-7)	3.9	31	
0.161	2.48	0.643	861	≥ 200	≥ 200	≥ 200	≥ 200	190 (≈ 747 µg/mL)	≥ 200	≥ 200	≥ 200	> 45	100	CC[C@H](C)[C@H](NC(=O)[C@H](C)NC(=O)CNC(=O)[C@H](Cc1ccccc1)NC(=O)[C@H](CC(N)=O)NC(=O)[C@@H]1CCCN1C(=O)[C@H](CO)NC(=O)[C@H](CO)NC(=O)[C@H](Cc1c[nH]cn1)NC(=O)[C@H](CCCNC(=N)N)NC(=O)[C@H](CC(C)C)NC(=O)[C@H](Cc1ccccc1)NC(=O)[C@H](CC(=O)O)NC(=O)[C@H](C)NC(=O)[C@H](CC(C)C)NC(=O)[C@H](CCCNC(=N)N)NC(=O)[C@H](CCC(N)=O)NC(=O)[C@@H](NC(=O)[C@H](C)NC(=O)[C@@H]1CSSC[C@H](NC(=O)[C@@H](N)CCCCN)C(=O)N[C@@H](CC(N)=O)C(=O)N[C@@H]([C@@H](C)O)C(=O)N[C@@H](C)C(=O)N[C@@H]([C@@H](C)O)C(=O)N1)[C@@H](C)O)C(=O)N1CCC[C@H]1C(=O)N[C@@H](CO)C(=O)N[C@@H](CO)C(=O)N[C@H](C(=O)N[C@@H](CC(N)=O)C(=O)N[C@H](C(=O)NCC(=O)N[C@@H](CO)C(=O)N[C@@H](CC(=O)O)C(=O)N[C@H](C(=O)N[C@@H](Cc1ccc(O)cc1)C(N)=O)[C@@H](C)O)C(C)C)[C@@H](C)O [listing 1 of 2 here]			IC50 [19]: 0.355 nM; IC50 (Calcitonin receptor [20]): 19.5 nM; IC50 [21]: 0.217 nM; IC50 (Calcitonin receptor [22]): 96.9 nM
														CC[C@H](C)[C@H](NC(=O)[C@H](C)NC(=O)CNC(=O)[C@H](Cc1ccccc1)NC(=O)[C@H](CC(N)=O)NC(=O)[C@@H]1CCCN1C(=O)[C@H](CO)NC(=O)[C@H](CO)NC(=O)[C@H](Cc1c[nH]cn1)NC(=O)[C@H](CCCNC(=N)N)NC(=O)[C@H](CC(C)C)NC(=O)[C@H](Cc1ccccc1)NC(=O)[C@H](CC(=O)O)NC(=O)[C@H](C)NC(=O)[C@H](CC(C)C)NC(=O)[C@H](CCCNC(=N)N)NC(=O)[C@H](CCC(N)=O)NC(=O)[C@@H](NC(=O)[C@H](C)NC(=O)[C@@H]1CSSC[C@H](NC(=O)[C@@H](N)CCCCN)C(=O)N[C@@H](CC(N)=O)C(=O)N[C@@H]([C@@H](C)O)C(=O)N[C@@H](C)C(=O)N[C@@H]([C@@H](C)O)C(=O)N1)[C@@H](C)O)C(=O)N1CCC[C@H]1C(=O)N[C@@H](CO)C(=O)N[C@@H](CO)C(=O)N[C@H](C(=O)N[C@@H](CC(N)=O)C(=O)N[C@H](C(=O)NCC(=O)N[C@@H](CO)C(=O)N[C@@H](CC(=O)O)C(=O)N[C@H](C(=O)N[C@@H](Cc1ccc(O)cc1)C(N)=O)[C@@H](C)O)C(C)C)[C@@H](C)O [listing 2 of 2 here]			Activity (Rattus norvegicus [23]): 72%; Activity (Rattus norvegicus [24]): 62%
